Counter-ions that a name gives are not always drawn.
Each molecule was assayed against T1, SHP2 (Homo sapiens, UniProt Q06124) (assay: SHP2 allosteric inhibition assay (DiFMUP prompt fluorescence)). Conditions: 0.25 nM SHP2 activated with 0.5 μM peptide IRS1_pY1172(dPEG8)pY1222; substrate DiFMUP 100 μM.
T1 sequence (Q06124 1-593): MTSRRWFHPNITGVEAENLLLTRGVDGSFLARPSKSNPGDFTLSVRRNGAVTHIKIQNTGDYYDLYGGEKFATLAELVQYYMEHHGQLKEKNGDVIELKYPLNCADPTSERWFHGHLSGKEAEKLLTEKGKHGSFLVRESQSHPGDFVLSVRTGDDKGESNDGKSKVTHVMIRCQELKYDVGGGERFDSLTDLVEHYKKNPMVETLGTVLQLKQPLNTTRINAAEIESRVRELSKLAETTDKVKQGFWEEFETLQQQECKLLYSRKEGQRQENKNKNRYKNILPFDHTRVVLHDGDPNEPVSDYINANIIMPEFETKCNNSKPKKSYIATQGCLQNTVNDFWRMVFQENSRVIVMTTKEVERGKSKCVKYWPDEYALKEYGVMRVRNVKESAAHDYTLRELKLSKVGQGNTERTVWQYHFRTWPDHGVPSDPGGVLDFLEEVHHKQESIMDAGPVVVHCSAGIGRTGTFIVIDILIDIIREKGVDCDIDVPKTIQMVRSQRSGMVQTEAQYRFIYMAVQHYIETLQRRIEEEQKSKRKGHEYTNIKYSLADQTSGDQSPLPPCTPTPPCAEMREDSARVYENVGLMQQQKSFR
Type: biochemical
`Nc1nccc(Sc2cnc(N3[C@@H]4CC[C@H]3C[C@]3(Cc5ccccc5[C@H]3N)C4)cn2)c1Cl` [Example 231] was tested, and the IC50 was > 10000 nM.
`N[C@@H]1c2ccccc2CC12CCN(c1ccc(SCC3CC3)nc1)CC2` [Example 272, (S)-1′-(6-((cyclopropylmethyl)thio)pyridin-3-yl)-1,3-dihydrospiro[indene-2,4′-piperidin]-1-amine formate] was tested, and the IC50 was < 50 nM.
`N#Cc1cccc2c1CC1(CCN(c3cnc4c(N5CCCc6ncccc65)n[nH]c4n3)CC1)[C@H]2N` (single isomer, unassigned) [Example 116] gave an IC50 of 1000 to 10000 nM.
In the case of `C[C@H](O)c1nc(Sc2ccnc(Cl)c2Cl)cnc1N1CCC2(CC1)Cc1ccccc1[C@H]2N` (single isomer, unassigned) [Example 260], the IC50 is reported as > 10000 nM.
`Cn1cnc2c(N3CCC4(CC3)Cc3ccccc3[C@H]4N)nccc21` [Example 184] showed an IC50 of 50 to 1000 nM.
With `C[C@H](C(=O)N1CCC2(CC1)Cc1ccccc1[C@H]2N)c1ccc(F)cc1` (single isomer, unassigned) [Example 290] the IC50 was < 50 nM.
Molecule `N[C@H]1c2ccccc2CC12CCN(c1cnc3c(-c4ccnc(Cl)c4F)n[nH]c3n1)CC2` (single isomer, unassigned) [Example 66] has an IC50 of 50 to 1000 nM.
With `Cc1cnc2sc(N3CCC4(CC3)Cc3ccccc3[C@H]4N)nn12` [Example 293, (S)-1′-(5-methylimidazo[2,1-b][1,3,4]thiadiazol-2-yl)-1,3-dihydrospiro[indene-2,4′-piperidin]-1-amine] the IC50 was < 50 nM.
In the case of `NC1c2ccccc2CC12CCC(c1cnc(SCC3CC3)cn1)CC2` (single isomer, unassigned) [Example 284, (1s, 1′R, 4S)-4-(5-((cyclopropylmethyl)thio)pyrazin-2-yl)-1′,3′-dihydrospiro[cyclohexane-1,2′-inden]-1′-amine], the IC50 is reported as 50 to 1000 nM.
For `Nc1nccc(Sc2cnc(N3[C@@H]4CC[C@H]3C[C@]3(C4)Oc4ccccc4[C@H]3N)cn2)c1Cl` [Example 232], the IC50 was < 50 nM.
In the case of `N[C@@H]1c2ccccc2C[C@]12CC[C@H](c1cnc(Sc3ccnc(Cl)c3Cl)cn1)CC2` (single isomer, unassigned) [Example 275, (1s, 3′S, 4R)-4-{5-[(2,3-dichloropyridin-4-yl)sulfanyl]pyrazin-2-yl}-1′,3′-dihydrospiro[cyclohexane-1,2′-inden]-3′-amine], the IC50 is reported as 1000 to 10000 nM.
`CC(C)Sc1cnc(N2CCC3(CC2)Cc2ccccc2[C@H]3N)cn1` [Example 248, (3S)-1′-[5-(propan-2-ylsulfanyl)pyrazin-2-yl]-1,3-dihydrospiro[indene-2,4′-piperidin]-3-amine] was tested, and the IC50 was < 50 nM.
In the case of `Cc1nc(N2CCC3(CC2)Cc2ccccc2[C@@H]3N)c(CO)nc1-c1cccc(Cl)c1Cl` (single isomer, unassigned) [Example 19], the IC50 is reported as 50 to 1000 nM.
`N[C@@H]1c2ccccc2C[C@]12CC[C@@H](c1cnc3c(N4CCCc5ncccc54)n[nH]c3n1)CC2` (single isomer, unassigned) [Example 191, (1r, 3′S, 4S)-4-[3-(1,2,3,4-tetrahydro-1,5-naphthyridin-1-yl)-1H-pyrazolo[3,4-b]pyrazin-6-yl]-1′,3′-dihydrospiro[cyclohexane-1,2′-inden]-3′-amine] was tested, and the IC50 was 1000 to 10000 nM.
In the case of `N[C@@H]1c2ccccc2C[C@@]12C[C@H]1CC[C@@H](C2)N1c1cnc2c(N3CCCc4ncccc43)n[nH]c2n1` [Example 227], the IC50 is reported as > 10000 nM.
`Nc1nccc(Sc2ncc(N3CCC4(CC3)Cc3ccccc3[C@H]4N)cn2)c1Cl` [Example 63] showed an IC50 of 50 to 1000 nM.

From patent US12331056B2, “SHP2 phosphatase inhibitors and methods of use thereof” (Relay Therapeutics, Inc., priority 2018, dated 2025)
